Measured values: patent US20070191493A1, “Use of n-alkanols as activators of the cftr channel” (priority 2003, published 2007)

How the values were obtained:
[1] = test system: CHO cells; assay: ATP-induced calcium response (cellular uncoupling) in CHO cells; format: cell-based, Chinese hamster; conditions: α-GA 10 to 100 μM, octan-1-ol 1 mM
Method: The Ca^2+ measurements are carried out in the presence of fura-2 (impermeant fluorescent probe) which binds […]. The cells are incubated in serum-free DMEM/F12 culture medium in the presence of the permeant form of fura-2 (fura-2/AM, 2.5 μM) for 1 h at 37° C. The cells, placed on the platform of an epifluorescent microscope (Olympus) (20× objective), are perfused with the solutions to be tested (e.g. ATP, octanol). They are sequentially illuminated at 340 nm and 380 nm and the fluorescence emitted (F) is measured at 510 nm. It is detected via a 12-bit CCD camera (Sony) connected to a data processing computer unit (TILL Photonics). The intracellular Ca^2+ concentration [Ca^2+]i is calculated using the Grynckiewicz equation (Grynckiewicz et al., 1985): [Ca^2+]i=Kdi *(R−Rmin/Rmax−R), based on the ratiometric analysis R (340/380 nm) of the fluorescence (TILL Vision); Rmax and Rmin denote the ratio of fluorescence measured in the presence or in the absence of Ca^2+.

[2] = molecular target: CFTR channel (Homo sapiens, UniProt P13569); assay: 125I radioactive iodide efflux in CHO-CFTR(+) cells; format: cell-based; set-up: expressed in transfected cells; host or cells: CHO (Chinese hamster ovary) cells, CHO-CFTR(+); conditions: CHO-CFTR(+) cells; n-alkanols 1 mM, FSK 1 μM, A23187 2 μM, α-GA 10 and 100 μM
CFTR channel, sequence (P13569 whole entry): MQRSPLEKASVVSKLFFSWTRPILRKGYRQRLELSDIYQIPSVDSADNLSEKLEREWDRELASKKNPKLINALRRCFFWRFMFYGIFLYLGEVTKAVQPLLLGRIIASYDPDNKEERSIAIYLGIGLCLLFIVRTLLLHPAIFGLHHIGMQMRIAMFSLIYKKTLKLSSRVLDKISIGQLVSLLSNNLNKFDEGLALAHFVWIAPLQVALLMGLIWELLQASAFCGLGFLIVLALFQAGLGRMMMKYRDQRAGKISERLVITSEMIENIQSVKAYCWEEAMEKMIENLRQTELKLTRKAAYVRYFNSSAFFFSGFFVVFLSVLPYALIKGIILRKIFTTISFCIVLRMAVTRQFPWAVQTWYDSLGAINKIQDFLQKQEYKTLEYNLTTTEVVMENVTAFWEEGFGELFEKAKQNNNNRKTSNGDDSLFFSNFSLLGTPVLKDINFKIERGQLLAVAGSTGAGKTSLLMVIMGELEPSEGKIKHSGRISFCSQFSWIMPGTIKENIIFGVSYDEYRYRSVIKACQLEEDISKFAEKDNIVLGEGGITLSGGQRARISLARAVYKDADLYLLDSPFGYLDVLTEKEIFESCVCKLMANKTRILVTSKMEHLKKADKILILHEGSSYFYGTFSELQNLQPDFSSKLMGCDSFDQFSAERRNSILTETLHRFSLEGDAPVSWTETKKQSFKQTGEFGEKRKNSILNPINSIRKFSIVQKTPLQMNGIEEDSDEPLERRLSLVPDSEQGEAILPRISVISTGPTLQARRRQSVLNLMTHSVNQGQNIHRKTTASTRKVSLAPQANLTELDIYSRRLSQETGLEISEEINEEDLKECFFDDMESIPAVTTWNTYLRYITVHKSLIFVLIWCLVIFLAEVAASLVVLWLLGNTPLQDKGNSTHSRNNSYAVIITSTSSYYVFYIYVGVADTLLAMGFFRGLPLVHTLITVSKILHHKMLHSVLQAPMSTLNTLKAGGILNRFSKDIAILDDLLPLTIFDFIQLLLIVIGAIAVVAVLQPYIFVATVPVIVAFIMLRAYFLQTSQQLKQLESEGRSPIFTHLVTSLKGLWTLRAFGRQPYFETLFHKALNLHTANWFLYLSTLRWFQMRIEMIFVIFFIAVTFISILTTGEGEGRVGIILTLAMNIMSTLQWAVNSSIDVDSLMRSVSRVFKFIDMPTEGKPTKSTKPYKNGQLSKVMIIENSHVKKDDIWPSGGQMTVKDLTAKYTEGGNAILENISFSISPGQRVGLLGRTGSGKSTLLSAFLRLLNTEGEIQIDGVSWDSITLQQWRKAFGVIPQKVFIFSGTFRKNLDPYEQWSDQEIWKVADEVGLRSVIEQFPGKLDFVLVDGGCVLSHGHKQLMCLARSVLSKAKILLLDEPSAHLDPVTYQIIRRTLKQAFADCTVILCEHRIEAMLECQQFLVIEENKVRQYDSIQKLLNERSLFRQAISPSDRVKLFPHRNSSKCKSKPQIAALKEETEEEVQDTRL
Method: The cells are cultured in 24-well plates with a dilution to 1/10 after passage. […] The operation is repeated every 30 s for 2 to 6 min. […] All the samples are counted in a gamma counter (Kontron). The precipitated proteins are solubilized in 0.1N NaOH and quantified using a calorimetric test.
The tracer contained in the cell layer at the beginning of the efflux is calculated as the sum of the samples and of the extracts counted. The efflux curves are constructed by expressing the percentage of the content remaining in the cell layer (I %) with respect to time. The stimulated or nonstimulated efflux rate constants (k, min^−1) are determined by smoothing the efflux curves to a monoexponential function I %=100*exp(−kt) using a linear regression of the neperian logarithm of the data, k is used to calculate the iodide released into the medium with respect to time. The hypothesis is made that, in the presence of a stimulator, the efflux is the sum of two iodide effluxes occurring in parallel: a basal efflux and a stimulated efflux characterized, respectively, by the constants kb and ks. The total net efflux is then described by the equation It^%=100*(1−exp(−ktt)) where kt is the sum of kb and ks. Finally, ks calculated as kt−kb is used to establish a dose-response relationship for antagonists. The data is expressed as means ±SD, and the t-test is used to determine the significances. The concentration-response curves for agonists or for antagonists are smooth using the hyperbolic equation Y=Ymax*X/(EC5C+X), where Y is the response. Y begins at the basal level and progresses to the plateau (Ymax), X is the concentration and the half-effect values (EC are calculated using GraphPad Prism v3.0 (GraphPad software)).

Compound: CC1(C)[C@@H](O)CC[C@]2(C)[C@H]3C(=O)C=C4[C@H]5C[C@@](C)(C(=O)O)CC[C@]5(C)CC[C@@]4(C)[C@]3(C)CC[C@@H]12 [α-GA, 18-alpha glycerrhetinic acid, reference compound]
- cellular uncoupling shown by ATP-induced calcium response [1]: clearly uncouples the cells
- activation of CFTR (125I efflux), in words [2]: no effect
